Assay results as given in US20220363649A1, “ORGANIC COMPOUNDS” (Rutgers, The State University of New Jersey, priority 2018, published 2022).

How the values were obtained:
S1R = target: T1, S1R (Cavia porcellus, UniProt Q60492); assay: S1R radiolabeled binding assay, guinea pig whole brain, [3H]-pentazocine; details: guinea pig brain membranes (Compounds 1-9); read-out: S1R Ki
T1 construct: performed using Guinea pig whole brain according to the protocol previously reported; from tissue; host or cells: guinea pig whole brain membrane preparations
T1 sequence (Q60492 whole entry): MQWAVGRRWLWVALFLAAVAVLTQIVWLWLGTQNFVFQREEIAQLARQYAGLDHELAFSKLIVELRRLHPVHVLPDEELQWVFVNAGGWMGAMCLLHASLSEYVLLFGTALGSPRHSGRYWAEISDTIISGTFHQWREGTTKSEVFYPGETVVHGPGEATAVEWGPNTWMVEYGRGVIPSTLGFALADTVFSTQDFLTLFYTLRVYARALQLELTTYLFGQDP
Protocol: Following 1 h incubation at 25° C., the binding assay was terminated by addition of cold buffer. The mixture was then filtered through Whatman GF/B filters and washed with cold buffer. Radioactivity was identified using the liquid scintillation counter.
Receptor binding data were analyzed by nonlinear regression of saturation and competition curves using the GraphPad Prism 7.0 software (GraphPad Software, La Jolla, Calif.).
(§1) Radiolabeled binding assays were conducted using two different species.

Sprague-Dawley rats [1] = assay: Rat rotarod test (motor incoordination); type: in vivo; details: i.p., male Sprague-Dawley rats
Protocol: Groups of 6 pre-selected male (Sprague-Dawley) rats weighing 180±20 g were included to the study motor coordination. Rats were trained on a rod at a continuous accelerating speed from 4 to 30 rpm/min during a time period of 4 minutes for at least 3 times before the study. Rats were randomly assigned to different groups with similar baseline.
Vehicle and test articles were administered by intraperitoneal (i.p.) injection. The rats were placed on the accelerating rotarod at 30, 60, 90 and 120 min post dosing, and the time (seconds) the rat remained on the rotarod was recorded.

Sprague-Dawley rats [2] = assay: Rat formalin test; type: in vivo; details: 20 and 40 mg/kg, i.p., hind paw licking time
Protocol: One day after the rotarod test, vehicle and test articles were administered intraperitoneally again to groups of 6 Sprague-Dawley male rats weighting 180±20 g, 30 minutes prior to sub-plantar injection of formalin (0.05 ml, 2% solution). The hind paw licking time was recorded during a 0-35 min period at 5-min intervals after formalin challenge as a measure of analgesic activity of the test compound.

Sprague-Dawley rats [3] = assay: Paclitaxel-induced cold hyperalgesia model in rats; type: in vivo, rat; details: i.p.
Protocol: (§2) Male Sprague-Dawley rats weighing 240+20 grams were employed. Paclitaxel (brand name TAXOL®, 2 mg/kg) is injected intraperitoneally (i.p.) on days 1, 3, 5 and 7 with a total cumulative dose of 8 mg/kg. During the course of the study, the animals were housed individually under constant temperature, humidity and a 12-hour light-dark cycle.
(§3) Test articles, vehicle and gabapentin were administered intraperitoneally on Days 14 or 21.
Cold hyperalgesia was assessed by the […] and measured prior to Paclitaxel injections (Day 0) and test article administration (Days 13 or 20) and at 0.5 hour after dosing of vehicle or test articles on Days 14 or 21. The animals were randomized to each groups based on pre-dose cold hyperalgesia values (Days 13 or 20). Test rat was placed in 2.5 cm depth of a 0-2° C. ice water bath in a Plexiglas arena 32×32 cm×27 cm high. Withdrawal latency of the left paw was recorded and averaged twice for cold hyperalgesia assessment. A 20 sec cut time was employed.

Sprague-Dawley rats [4] = assay: Paclitaxel-induced mechanical allodynia model in rats; type: in vivo, rat; details: i.p., von Frey
Protocol: as §2, §3
Mechanical allodynia was assessed by the manual von Frey test and measured prior to Paclitaxel injections (Day 0) and test article administration (Days 13 or 20) and at 0.5 hour after dosing of vehicle or test articles on Days 14 or 21. The animals were randomized to each groups based on pre-dose mechanical allodynia values (Days 13 or 20). The animals were given 20 to 30 minutes to acclimatize prior to testing. The paw was touched with a series of 8 manual von Frey monofilaments with logarithmically incremental stiffness [3.61 (0.4 g), 3.84 (0.6 g), 4.08 (1.0 g), 4.31 (2.0 g), 4.56 (4.0 g), 4.74 (6.0 g), 4.93 (8.0 g), and 5.18 (15.0 g)]. […] Mechanical threshold (50% g threshold) was assessed using the up- and down-method following the procedure described by Chaplan, et al., 1994, J Neurosci Methods 53:55-63.

Sprague-Dawley rats [5] = assay: STZ-induced mechanical allodynia model in diabetic rats; type: in vivo, rat; details: i.p., von Frey
Protocol: (§4) Male Sprague-Dawley rats weighing 225-250 grams were employed. Streptozotocin (STZ, 50 mg/kg) freshly dissolved in 0.9% sterile saline was injected intraperitoneally on day 0. Three days later, diabetes was confirmed by existence of blood glucose >350 mg/dL as measured by glucometer. Animal health was monitored biweekly for 14 days, at which point mechanical allodynia and thermal hyperalgesia were measured and confirmed. During the course of the study, the animals were housed individually under constant temperature, humidity and a 12-hour light-dark cycle. The animals were tested prior to study inclusion for mechanical allodynia and thermal hyperalgesia.
(§5) The behavioral assessments include mechanical allodynia and thermal hyperalgesia. Test articles, vehicle and gabapentin were administered intraperitoneally on Days 14 or 21.
Mechanical allodynia was assessed by the manual von Frey test and measured prior to STZ injections (Day 0). The animals were then randomized to each groups based on pre-dose mechanical allodynia values (Day 13 and Day 20). The mechanical allodynia test was performed again at 0.5 and 1.5 hours after vehicle, test article or gabapentin administration on Day 14. […] Mechanical threshold (50% g threshold) was assessed using the up- and down-method following the procedure described by Chaplan, et al., 1994, J Neurosci Methods 53:55-63).

Sprague-Dawley rats [6] = assay: STZ-induced thermal hyperalgesia model in diabetic rats; type: in vivo, rat; details: i.p.
Protocol: as §4, §5
Thermal hyperalgesia: The animals were tested prior to study inclusion for thermal hyperalgesia on day 13 and Day 20. Thermal hyperalgesia was measured at 1 and 2 hours after dosing of vehicle or test article on Day 14 and Day 21 by using the IITC Model-336G (IITC INC. USA) apparatus. Each rat was placed within a plastic box atop a glass floor for 20 to 30 minutes. A light beam under the floor was aimed at the plantar surface of the left hind paw. The time was measured automatically when the paw was withdrawn away from the thermal stimulus. […]

CD-1 mice = assay: Mouse tail flick test, potentiation of morphine analgesia; type: in vivo; details: mouse model of acute pain, n=8, i.p.; morphine SC
Protocol: Male young CD-1 mice (at the age of 7-8 weeks) were used for this study. Tail flick latency was determined using a lamp device (design derived from D'Amour & Smith, 1941, J. Pharmacol. Exp. Ther. 72(1):74-79). The behavioral endpoint was defined as a flick of the tail out of the path of the light. The intensity of the light was adjusted to provide a baseline response time of approximately 2-4 seconds. The light beam was focused approximately 4 cm from the tip of the tail. A cut off time of 20 seconds was used to prevent tissue damage. Mice received a single intra-peritoneal (IP) injection of either vehicle (saline) or test substance at appropriate doses followed immediately by a single sub-cutaneous (SC) administration of saline or Morphine at the appropriate dose for each group. Thirty minutes after the SC administration, the animals were gently restrained in a manner which allowed access to the tail and positioned beneath a light beam (D'Amour & Smith, 1941, J Pharmacol Exp Ther 72(1):74-79) with the tail aligned for measurement at approximately 4 cm from tail tip. The lamp device automatically timed each tail flick response once the tail was flicked away from the light beam by a sensor beneath the platform.

human S1R = target: T2, human S1R (Homo sapiens, UniProt Q99720); assay: Human S1R radiolabeled binding assay, human jurkat cell membranes, [3H]-pentazocine; details: human membranes (Compounds 10-76)
T2 construct: experimentally determined in human jurkat cell membranes using 15.0 nM; endogenous in cells; host or cells: human Jurkat cell membranes
T2 sequence (Q99720 whole entry): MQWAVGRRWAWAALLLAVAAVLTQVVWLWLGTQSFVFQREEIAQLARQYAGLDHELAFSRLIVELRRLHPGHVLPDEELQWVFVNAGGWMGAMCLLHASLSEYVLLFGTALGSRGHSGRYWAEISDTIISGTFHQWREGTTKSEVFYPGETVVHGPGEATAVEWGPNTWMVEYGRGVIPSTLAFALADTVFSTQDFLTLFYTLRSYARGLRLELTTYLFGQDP
Protocol: The binding process was terminated by addition of cold buffer. Then, the mixture was filtered and washed with cold buffer. Radioactivity was identified using the TopCount NTX liquid scintillation counter (PerkinElmer, Waltham, Mass.).
as §1

human S2R = target: T3, human S2R (Homo sapiens, UniProt Q5BJF2); assay: Human S2R radiolabeled binding assay, Jurkat Clone E6-1 cell membranes, [3H] DTG; details: human membranes (Compounds 10-76)
T3 construct: performed using Jurkat cell line Clone E6-1 cells with 0.025 μM; endogenous in cells; host or cells: Jurkat Clone E6-1 cell membranes
T3 sequence (Q5BJF2 whole entry): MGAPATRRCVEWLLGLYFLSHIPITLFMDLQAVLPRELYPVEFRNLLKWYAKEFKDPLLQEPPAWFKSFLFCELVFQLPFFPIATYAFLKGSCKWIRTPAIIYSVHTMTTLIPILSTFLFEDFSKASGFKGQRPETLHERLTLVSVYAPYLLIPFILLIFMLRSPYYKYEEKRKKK
Protocol: The radiolabeled binding assay of the human S1R and S2R were performed using human jurkat cell membranes according to the protocol previously reported (Ganapathy, et al., 1999, J. Pharmacol. Exp. Ther. 289:251-60).
DTG as radioligand. […] The cells were incubated in RPMI 1640 Medium with 10% FBS, 100 U/ml penicillin and […] streptomycin. After incubation, the cells were suspended in 5 mM potassium phosphate buffer (pH=7.6). The membrane protein concentration was controlled at 5 mg/mL. The collected membrane protein was incubated with ligands in potassium phosphate buffer for 1 hour at room temperature and terminated by adding ice-cold buffer. Then the mixture is filtered with 0.7 μm syringe filter and washed three times. The radioactivity is determined by liquid scintillation spectrometry.
Radiolabeled binding assays were conducted using two different species. Compounds 1-9 were assayed using guinea pig brain membranes for the binding assays. Compounds 10-76 were assayed using human brain membranes for the binding assays.

Sprague Dawley rats [7] = assay: Spinal nerve ligation (SNL) Chung model in rats, mechanical allodynia; type: in vivo, rat; details: two doses, von Frey
Protocol: (§6) Groups of 6 male Sprague Dawley rats weighing 160-200 grams were used. Prior to surgery and post-operatively, the animals were housed socially under constant temperature, humidity, and a 12-hour light-dark cycle. Following acclimation to the animal colony for 7 days, the rats were tested for mechanical allodynia and thermal hyperalgesia for baseline (pre-dose) values on Day −1. On Day 0, the animals were anesthetized with pentobarbital (50 mg/kg, i.p.). The left paraspinal muscles were separated from the spinous processes (L4-S2) and the L6-S1 facet joint was nipped. The transverse process of L6 was removed to allow for identifying the location of the L5 and L6 spinal nerves. The left L5-L6 spinal nerves were isolated and tightly ligated with 6.0 silk sutures. The rats are allowed to recover for 13 days.
Rats were tested for mechanical allodynia and thermal hyperalgesia following acclimation on Day −1 for baseline (pre-dose) values. Following the recovery period, the rats were tested to verify the mechanical allodynia on Day 13. […]
Mechanical allodynia: The mechanical allodynia is assessed by the manual von Frey test (Chaplan up/down method using von Frey filaments on the plantar surface of the CFA injected paw). […] Mechanical threshold (50% g threshold) is assessed using the up- and down-method following the procedure described by Chaplan (Chaplan et al., 1994, J Neurosci Methods 53:55-63).

Sprague Dawley rats [8] = assay: Spinal nerve ligation (SNL) Chung model in rats, thermal hyperalgesia; type: in vivo, rat; details: two doses, Hargreaves method
Protocol: as §6
Following a four (4) day wash out “period”, the rats were tested in the thermal hyperalgesia test and randomized to balance treatment groups. On Day 19, the rats were administered vehicle, Compound 68 at two doses, or gabapentin 50 mg/kg, IP. At 15 and 75 minutes post-dose the thermal hyperalgesia is tested again.
Thermal hyperalgesia: Thermal hyperalgesia is measured by the Hargreaves method. […] The time is measured automatically when the paw is withdrawn away from the thermal stimulus. […]

Ki (human S1R) [nM]	Ki (human S2R) [nM]	SMILES	Ki (S1R) [nM]	motor incoordination effect in rat rotarod test (Sprague-Dawley rats [1]; 20 mg/kg)	motor incoordination effect in rat rotarod test (Sprague-Dawley rats [1]; 40 mg/kg, t=60 min)	analgesic activity in rat formalin test (Sprague-Dawley rats [2])	analgesic activity, Paclitaxel-induced cold hyperalgesia (Sprague-Dawley rats [3])	analgesic activity, Paclitaxel-induced mechanical allodynia (Sprague-Dawley rats [4])	analgesic activity, STZ-induced mechanical allodynia (Sprague-Dawley rats [5])	analgesic activity, STZ-induced thermal hyperalgesia (Sprague-Dawley rats [6])	potentiation of morphine's analgesia, Tail Flick Test (CD-1 mice)	analgesic activity, mechanical allodynia in SNL Chung model (Sprague Dawley rats [7])	analgesic activity, thermal hyperalgesia in SNL Chung model (Sprague Dawley rats [8])
–	–	Cn1nc(CN2CCCC2)nc1-c1ccc(C(C)(C)C)cc1 [Compound 8, 5-(4-(tert-butyl)phenyl)-1-methyl-3-(pyrrolidin-1-ylmethyl)-1H-1,2,4-triazole]	2.28	No motor incoordination effect	very slight and temporary motor incoordination effect	dose-dependent analgesic activity	exhibits analgesic activity	exhibits analgesic activity	exhibits analgesic activity	exhibits analgesic activity	potentiates morphine's analgesia	–	–
0.75	360	CC(C)n1nc(CN2CCC3(CC3)C2)nc1-c1ccc(C(C)(C)C)cc1 [Compound 68, 5-((5-(4-(tert-butyl)phenyl)-1-isopropyl-1H-1,2,4-triazol-3-yl)methyl)-5-azaspiro[2.4]heptane]	–	–	–	–	–	–	–	–	–	exhibits analgesic activity	exhibits analgesic activity
